Structures are written as SMILES.

The test system of the first assay is Utrophin A promoter linked to a luciferase reporter gene. Briefly: Luciferase reporter assay (murine H2K cells). The format is cell-based. Particulars: Mus musculus, H2K mdx, luciferase level relative to control; H2K/mdx/Utro A reporter cells; compound 10 μM final concentration; read-out: Activity. Here is the method:
1. Luciferase Reporter Assay (Murine H2K Cells)
The cell line used for the screen is an immortalized mdx mouse H2K cell line that has been stably transfected with a plasmid containing […] fragment of the Utrophin A promoter including the first untranslated exon linked to a luciferase reporter gene. Under conditions of low temperature and interferon containing media, the cells remain as myoblasts. These are plated into 96 well plates and cultured in the presence of compound for three days. The level of luciferase is then determined by cell lysis and reading of the light output from the expressed luciferase gene utilising a plate luminometer.
H2K/mdx/Utro A reporter Cell Line Maintenance
The cells were grown at 33° C. in the presence of 10% CO2. To remove the myoblasts for platting, they were incubated with Trypsin EDTA until the monolayer started to detach.
The plates were then incubated at 33° C. in the presence of 10% CO2 for 24 hrs. Compounds were dosed by adding 10 μl of diluted compound to each well giving a final concentration of 10 μM. The plates were then incubated for a further 48 hrs. Cells were then lysed in situ following the manufacture's protocols (Promega Steady-Glo Luciferase Assay System (E2520). Then counted for 10 seconds using a plate luminometer (Victor1420).
Compounds for screening were stored at −20° C. as 10 mM stocks in 100% DMSO until required.
Biological activity as assessed using the luciferase reporter assay in murine H2K cells, and is classified as follows: […]
Consider `Nc1ccc(-c2nc3cc(Cl)c(Cl)cc3o2)cc1` [Example 440, 4-(5,6-dichlorobenzo[d]oxazol-2-yl)aniline], for which the activity at 10 µM was above 401%.

On to `Fc1ccc(-c2ccc3oc(-c4ccc(Cl)cc4)nc3c2)cn1` [Example 315, 2-(4-chlorophenyl)-5-(6-fluoropyridin-3-yl)benzo[d]oxazole], for which the activity at 10 µM was below 200%.

`O=C(Nc1ccc2oc(-c3ccc(Cl)cc3)nc2c1)c1ccc(Cl)cc1` [Example 89, 4-chloro-N-(2-(4-chlorophenyl)benzo[d]oxazol-5-yl)benzamide]: the activity at 10 µM was below 200%.

As for `O=C(CCc1ccccc1)Nc1ccc2oc(-c3ccc(Cl)cc3)nc2c1` [Example 98, N-(2-(4-chlorophenyl)benzo[d]oxazol-5-yl)-3-phenylpropanamide], the activity at 10 µM is below 200%.

As to `CCS(=O)(=O)c1ccc2oc(-c3cccs3)nc2c1` [Example 429, 5-(ethylsulfonyl)-2-(thiophen-2-yl)benzo[d]oxazole], the activity at 10 µM fell in the range of 201 to 300%.

Take `CC(C)C(=O)Nc1ccc2oc(-c3cccc(C(F)(F)F)c3)nc2c1` [Example 203, N-(2-(3-(trifluoromethyl)phenyl)benzo[d]oxazol-5-yl)isobutyramide]: the activity at 10 µM was below 200%.

On to `Nc1ccc2oc(-c3ccc(N4CCCC4)cc3)nc2c1` [Example 149, 2-(4-(pyrrolidin-1-yl)phenyl)benzo[d]oxazol-5-amine], for which the activity at 10 µM fell in the range of 201 to 300%.

With `CCS(=O)(=O)c1ccc2oc(-c3cnc4ccccc4c3)nc2c1` [Example 423, 5-(ethylsulfonyl)-2-(quinolin-3-yl)benzo[d]oxazole], the activity at 10 µM was above 401%.

For `CCCC(=O)Nc1ccc2nc(-c3ccc(Cl)cc3)oc2c1` [Example 256, N-(2-(4-chlorophenyl)benzo[d]oxazol-6-yl)butyramide], the activity at 10 µM lay in the range of 201 to 300%.

For the molecule `CC(C)C(=O)Nc1ccc2sc(-c3ccc(Cl)cc3)nc2c1` [Example 277, N-(2-(4-chlorophenyl)benzo[d]thiazol-5-yl)isobutyramide], the activity at 10 µM lay in the range of 301 to 400%.

On to `CCCC(=O)Nc1ccc2oc(-c3ccc(C(F)(F)F)cc3)nc2c1` [Example 125, N-(2-(4-(trifluoromethyl)phenyl)benzo[d]oxazol-5-yl)butyramide], for which the activity at 10 µM is below 200%.

With `O=[N+]([O-])c1ccc2oc(-c3ccccc3O)nc2c1` [Example 21, 2-(5-nitrobenzo[d]oxazol-2-yl)phenol], the activity at 10 µM is below 200%.

Turning to `CC(=O)Nc1ccc(-c2ccc3oc(-c4ccc(Cl)cc4)nc3c2)cn1` [Example 358, N-(5-(2-(4-chlorophenyl)benzo[d]oxazol-5-yl)pyridin-2-yl)acetamide], the activity at 10 µM is below 200%.

For `CCCS(=O)(=O)Nc1ccc2oc(-c3ccc(C)cc3)nc2c1` [Example 253, N-(2-p-tolylbenzo[d]oxazol-5-yl)propane-1-sulfonamide], the activity at 10 µM was below 200%.

Take `Nc1ccc2oc(-c3cccc(F)c3)nc2c1` [Example 232, 2-(3-fluorophenyl)benzo[d]oxazol-5-amine]: the activity at 10 µM is above 401%.

Turning to `CC(C)C(=O)Nc1ccc2nc(-c3cccc(Cl)c3Cl)oc2c1` [Example 354, N-(2-(2,3-dichlorophenyl)benzo[d]oxazol-6-yl)isobutyramide], the activity at 10 µM lay in the range of 301 to 400%.

Turning to `O=C(Nc1ccc2oc(-c3cccnc3)nc2c1)c1ccc(C(F)(F)F)cc1` [Example 46, N-(2-(pyridin-3-yl)benzo[d]oxazol-5-yl)-4-(trifluoromethyl)benzamide], the activity at 10 µM was below 200%.

Regarding `Cc1ccc(-c2nc3cc(C(N)=O)ccc3o2)cc1` [Example 218, 2-p-tolylbenzo[d]oxazole-5-carboxamide], the activity at 10 µM is above 401%.

As to `CCCC(=O)Nc1ccc2oc(-c3ccc(OC)cc3)nc2c1` [Example 137, N-(2-(4-methoxyphenyl)benzo[d]oxazol-5-yl)butyramide], the activity at 10 µM lay in the range of 201 to 300%.

Turning to `CCS(=O)(=O)c1ccc2oc(-c3ccc(N)cc3O)nc2c1` [Example 447, 5-Amino-2-(5-(ethylsulfonyl)benzo[d]oxazol-2-yl)phenol], the activity at 10 µM lay within 201 to 300%.

With `CC(C)C(=O)Nc1ccc2oc(-c3cc(Cl)cc(Cl)c3)nc2c1` [Example 271, N-(2-(3,5-dichlorophenyl)benzo[d]oxazol-5-yl)isobutyramide], the activity at 10 µM fell in the range of 201 to 300%.

In the case of `CCCCNc1ccc2oc(-c3ccc(Cl)cc3)nc2c1` [Example 182, N-butyl-2-(4-chlorophenyl)benzo[d]oxazol-5-amine], the activity at 10 µM was in the range of 301 to 400%.

Consider `CC(C)C(=O)Nc1ccc2sc(-c3cccc(Cl)c3)nc2c1` [Example 296, N-(2-(3-chlorophenyl)benzo[d]thiazol-5-yl)isobutyramide], for which the activity at 10 µM was above 401%.

As to `CC(C)C(=O)Nc1ccc2oc(-c3ccc(C4CCCCC4)cc3)nc2c1` [Example 430, N-(2-(4-cyclohexylphenyl)benzo[d]oxazol-5-yl)isobutyramide], the activity at 10 µM was below 200%.

For `CCCCC(=O)Nc1ccc2oc(-c3ccc(C)cc3)nc2c1` [Example 117, N-(2-p-tolylbenzo[d]oxazol-5-yl)pentanamide], the activity at 10 µM lay in the range of 301 to 400%.

Staying with this assay, now noted: luciferase reporter assay in murine H2K cells; classified relative to control.
Turning to `CN(C)c1ccc(-c2nc3ccccc3[nH]2)cc1` [Example 498], the Activity entry was “+ (Up to 200% relative to control)”.

For `Clc1ccc(OCc2nc3ccccc3[nH]2)cc1` [Example 495], the Activity result is listed as “+ (Up to 200% relative to control)”.

Take `CSc1ccc(-c2nc3ccccc3[nH]2)cc1` [Example 543]: the Activity entry was “++ (Between 201% and 300% relative to control)”.

`CCSc1nc2ccc(N)cc2s1` [Example 563]: the Activity result was “++ (Between 201% and 300% relative to control)”.

On to `Nc1ccc2oc(-c3cccc4ccccc34)nc2c1` [Example 577], for which the Activity result was “+ (Up to 200% relative to control)”.

For `O=C(Nc1ccccc1F)C(=O)c1c[nH]c2ccccc12` [Example 689], the Activity result was “++ (Between 201% and 300% relative to control)”.

As to `c1ccc2nc(-c3nc4ccccc4s3)ccc2c1` [Example 639], the Activity result is “+++ (Between 301% and 400% relative to control)”.

Regarding `OCc1cn(-c2ccccc2)nc1-c1cc2ccccc2o1` [Example 674], the Activity result is “++ (Between 201% and 300% relative to control)”.

As to `COc1ccc(-c2nc3cc([N+](=O)[O-])ccc3[nH]2)cc1OC` [Example 520], the Activity entry is “+ (Up to 200% relative to control)”.

With `Cc1cc(-c2nc3ccccc3o2)ccc1[N+](=O)[O-]` [Example 607], the Activity entry is “++++ (Above 401% relative to control)”.

On to `CCc1ccc2oc(-c3cccc(N)c3)nc2c1` [Example 502], for which the Activity result is “++ (Between 201% and 300% relative to control)”.

Consider `O=[N+]([O-])c1ccc2oc(-c3ccc(F)cc3)nc2c1` [Example 525], for which the Activity result is on record as “+ (Up to 200% relative to control)”.

Regarding `Nc1ccc(O)c(-c2nc3cc(N)ccc3s2)c1` [Example 550], the Activity result is listed as “+ (Up to 200% relative to control)”.

With `CCS(=O)(=O)c1ccc2ocnc2c1` [Example 573], the Activity entry is reported as “+ (Up to 200% relative to control)”.

On to `CCn1c(C)nc2cc(-c3ccccc3)ccc21` [Example 634], for which the Activity result is “+++ (Between 301% and 400% relative to control)”.

The values above are taken from patent publication US8501713B2, “Drug combinations for the treatment of duchenne muscular dystrophy” (Summit Corporation PLC, priority 2007, dated 2013).
